Data reported in patent publication US20120195938A1, “FORMULATIONS AND METHODS FOR RECOVERY FROM DENTAL SURGERY” (priority 2007, published 2012).

Legend:
[1] = system: alkaline phosphatase activity in hMSC cultures; experiment: Quantitative alkaline phosphatase assay in hMSC cultures; type: cell-based, Human; conditions: differentiation medium, dexamethasone 1×10^−7 M, melatonin 3×10^−7 M, 3.5% (v/v) PRP
Method: Human mesenchymal stem cells (hMSCs) were purchased through LONZA BIOSCIENCES. These cells were seeded at a density of approximately 7500 cells/cm^2 upon receipt. Since hMSCs spontaneously differentiate into various cell types after 8 to 9 passages, cells passaged 3 to 4 times were used for each of the examples disclosed herein. Supplemented DMEM media was refreshed every third day during culture. Cultures of hMSCs were passaged in growth medium until a sufficient number of flasks for differentiation studies were obtained. Growth medium was removed and replaced with a variety of experimental solutions as described more fully hereinbelow. For qualitative alkaline phosphatase assays described below, the cells were seeded on collagen coated cover slips (BIOCOAT®) at 2000 cells/cm^2. A volume of 3 ml of media was placed into the wells for 5 and 15 days according to the procedures below. […] At 5 days and 15 days, cultures in each condition were quantitatively assessed for alkaline phosphatase activity (μg of alkaline phosphatase per mL of solution). Quantitative alkaline phosphatase assays (ANASPEC, California) were completed according to manufacturers' instructions. […] The plate was incubated at room temperature for 30 minutes and the developing color was measured immediately using a BIO-TEK KINETIC MICROPLATE READER Model E[…] […]

[2] = system: glycoprotein-IIβ (GPIIβ or GPIIB); experiment: RT-PCR gene expression in hMSCs: GPIIB; type: cell-based, Human; conditions: hMSC, growth media, melatonin 3 × 10^−7 molar, dexamethasone 1 × 10^−7 molar
Method: (§1) Human mesenchymal stem cells (hMSCs) were purchased through LONZA BIOSCIENCES. These cells were seeded at a density of approximately 7500 cells/cm^2 upon receipt. Since hMSCs spontaneously differentiate into various cell types after 8 to 9 passages, cells passaged 3 to 4 times were used for each of the examples disclosed herein. Supplemented DMEM media was refreshed every third day during culture.
(§2) Cultures of hMSCs were passaged in growth medium until a sufficient number of flasks for differentiation studies were obtained. Growth medium was removed and replaced with a variety of experimental solutions as described more fully hereinbelow. For qualitative alkaline phosphatase assays described below, the cells were seeded on collagen coated cover slips (BIOCOAT®) at 2000 cells/cm^2. A volume of 3 ml of media was placed into the wells for 5 and 15 days according to the procedures below. For the reverse-transcriptase polymerase chain reaction studies described below, the cells were cultured in their respective media for 5, 10, or 20 days.
(§3) Cells were plated and grown using the general techniques described in Examples 1 and 2. The expression of numerous genes was assessed for cells at Days 5, 10, and 20. Cells were grown in the media as detailed in Tables 1 and 2 below. The expression of the indicated genes was assessed and reported as x-fold increases over the level of normalized gene expression to glyceraldehyde-3-phosphate dehydrogenase (GAPDH) in cells cultured in grown medium (Table 1).
The genes of interest were selected based upon their appearance in platelets and mesenchymal stem cells differentiating into osteoblasts. Glyceraldehyde-3 phosphate dehydrogenase (GAPDH) is a well characterized housekeeper gene for differentiating hMSCs. The primers used were: forward: 5′ […] (SEQ ID No. 1), reverse: […] (SEQ ID No. 2). The gene for bone sialoprotein (BSP) was chosen because it is expressed during the differentiation of hMSCs, prior to the mineralization phase, but represents a mature functioning osteoblast. The primers were forward: 5′ […] (SEQ ID No. 3), reverse: […] (SEQ ID No. 4). The gene BGLAP (osteocalcin) was chosen because it is definitive marker for functioning osteoblasts at 21 days. The primers were: forward: 5′ […] (SEQ ID No. 5), reverse: […] (SEQ ID No. 6). The gene for glycoprotein-IIβ (GPIIβ or GPIIB) was chosen because it is expressed in developing megakaryocytes and found in platelets. The primers were: forward: […] (SEQ ID No. 7), reverse: […] (SEQ ID No. 8).
The reaction protocol was completed in a BIO-RAD CHROMO4 Real Time Detection System using the iScript One-Step RT-PCR Kit (BIO-RAD, Hercules, Calif.). Each reaction mixture contained 100 nM of RNA. […] The data was collected and analyzed using the MC OPTICON software.

Runx2 = experiment: RT-PCR gene expression in hMSCs: Runx2; type: cell-based, Human; conditions: hMSC, growth media, melatonin 3 × 10^−7 molar, dexamethasone 1 × 10^−7 molar
Method: as §1, §2, §3
The reaction protocol was completed in a BIO-RAD CHROMO4 Real Time Detection System using the iScript One-Step RT-PCR Kit (BIO-RAD, Hercules, Calif.). Each reaction mixture contained […] of RNA. The 50 μL reaction mixture was placed in the thermal cycler and incubated at 55° C. for 10 minutes, 5 minutes at 95° C. for cDNA synthesis and reverse transcriptase inactivation. The PCR cycling was completed after 45 cycles; 10 seconds at 95° C., 30 seconds at 57° C. A melt curve analysis was completed; 1 minute at 95° C., 1 minute at 55° C. and 10 seconds at 55° C. for 80 cycles, increasing 0.5° C. each cycle. The data was collected and analyzed using the MC OPTICON software.
For the second PCR run, the gene Runx2 was included instead of BSP. Runx2 is a transcription factor required for all remaining steps of osteoblastic differentiation to occur. Accordingly, it is a specific early marker of osteoblastic differentiation.

BGLAP (osteocalcin) = experiment: RT-PCR gene expression in hMSCs: osteocalcin; conditions: hMSC, growth media, melatonin 3 × 10^−7 molar, dexamethasone 1 × 10^−7 molar
[3] = system: human periodontal ligament cells; conditions: media supplemented; Hayami et al., Bone (2007); cited from earlier work

Compound	alkaline phosphatase activity ([1]; Day 5, FIG. 1B)	alkaline phosphatase activity ([1]; Day 15, FIG. 1B)	GPIIB mRNA expression, x-fold increase compared to untreated growth control ([2]; Day 10, n = 3) [x-fold]	GPIIB mRNA expression, x-fold increase compared to untreated growth control ([2]; Day 20, n = 3) [x-fold]	Runx2 mRNA expression, x-fold increase compared to untreated growth control (Runx2; Day 5, n = 3) [x-fold]	Runx2 mRNA expression, x-fold increase compared to untreated growth control (Runx2; Day 10, n = 3) [x-fold]	Runx2 mRNA expression, x-fold increase compared to untreated growth control (Runx2; Day 20, n = 3) [x-fold]	Osteocalcin mRNA expression, x-fold increase compared to untreated growth control (BGLAP (osteocalcin); Day 5, n = 3) [x-fold]	Osteocalcin mRNA expression, x-fold increase compared to untreated growth control (BGLAP (osteocalcin); Day 5, n = 3, listed as melatonin)	Osteocalcin mRNA expression, x-fold increase compared to untreated growth control (BGLAP (osteocalcin); Day 10, n = 3) [x-fold]	Osteocalcin mRNA expression, x-fold increase compared to untreated growth control (BGLAP (osteocalcin); Day 20, n = 3) [x-fold]	osteoblast-specific cell markers in culture [3]
COc1ccc2[nH]cc(CCNC(C)=O)c2c1 [Melatonin, melatonin]	showed an effect	elevated alkaline phosphatase activity	968.86	2432.97	269.75	14.39	129.83	260.38	high levels	1269.3	1295.79	
C[C@@H]1C[C@H]2[C@@H]3CCC4=CC(=O)C=C[C@]4(C)[C@@]3(F)[C@@H](O)C[C@]2(C)[C@@]1(O)C(=O)COP(=O)(O)O [dexamethasone sodium phosphate solution, Dexamethasone sodium phosphate]												increased osteoblast-specific cell markers
C[C@@H]1C[C@H]2[C@@H]3CCC4=CC(=O)C=C[C@]4(C)[C@@]3(F)[C@@H](O)C[C@]2(C)[C@@]1(O)C(=O)CO [Dexamethasone, dexamethasone]			11.59	4993.43	138.04	4.16	15.29	70.22		142.21	998.82	
